Our source for the IC50 values is patent US8450308B2 (Vitae Pharmaceuticals, Inc., priority 2008, dated 2013).

T1 sequence (P56817 22-458): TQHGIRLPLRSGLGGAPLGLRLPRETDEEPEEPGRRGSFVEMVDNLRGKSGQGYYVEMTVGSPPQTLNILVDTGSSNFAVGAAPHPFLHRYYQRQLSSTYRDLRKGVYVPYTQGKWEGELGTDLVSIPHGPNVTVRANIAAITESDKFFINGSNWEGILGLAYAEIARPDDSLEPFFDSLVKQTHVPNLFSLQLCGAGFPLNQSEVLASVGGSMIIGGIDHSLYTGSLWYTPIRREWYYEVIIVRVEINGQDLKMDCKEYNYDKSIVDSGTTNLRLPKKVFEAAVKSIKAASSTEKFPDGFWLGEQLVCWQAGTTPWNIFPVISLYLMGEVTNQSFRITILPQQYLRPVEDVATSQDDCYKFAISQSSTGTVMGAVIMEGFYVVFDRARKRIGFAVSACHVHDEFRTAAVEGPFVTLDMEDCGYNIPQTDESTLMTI

One assay addresses T1, truncated human beta-secretase (residues 1-458, His6-tagged at the C-terminus) (Homo sapiens, UniProt P56817).
T1 construct: truncated human beta-secretase (residues 1-458, His6-tagged at the C-terminus); His6 (C); made in house; host or cells: insect cells D. melanogaster S2 (baculovirus expression system (so in the source))
Kind of assay: BACE fluorescence quench assay. Type of assay: biochemical.
Conditions: not given
The procedure:
The assay was performed at room temperature in 96-well white opaque Optiplates aque Optiplates (PerkinElmer, Waltham, Mass.) in a total volume of 200 μl of the incubation mixture containing 50 mM sodium acetate buffer, pH 4.5, 0.4 μM FRET substrate, 2.4 nM enzyme, 5% DMSO, and 0.05% Brij-35. The tested compounds were serially diluted in DMSO and pre-incubated with the substrate. The reaction was started by addition of enzyme, and the progress of the reaction was followed by measuring fluorescence with an excitation wavelength of 480 nm and an emission wavelength of 520 nm. Ten measurements were taken every 5-10 min, and the intensity of fluorescence was regressed against time in order to derive velocities of reaction in all 96 wells. […] IC50 values were calculated by fitting percent inhibition vs. inhibitor concentration into a four-parametric logistic model using XLFit software (IDBS, Guildford, UK).
Regarding `CN1C(=O)C2(CC(c3ccccc3)Oc3ccc(-c4cccc(C(F)(F)F)c4)cc32)N=C1N` (stereo not drawn) [Compound 30, 2′-amino-1′-methyl-2-phenyl-6-(3-(trifluoromethyl)phenyl)spiro[chroman-4,4′-imidazol]-5′(1′H)-one], the IC50 (usually the concentration at which inhibition is half-maximal) was 1 to 5 µM.

As to `CN1C(=O)C2(CC(c3ccccc3)Oc3ccc(-c4cccc(CO)c4)cc32)N=C1N` (stereo not drawn) [Compound 33, 2′-amino-6-(3-(hydroxymethyl)phenyl)-1′-methyl-2-phenylspiro[chroman-4,4′-imidazol]-5′(1′H)-one], the IC50 fell in the range of 1 to 5 µM.

Turning to `CN1C(=O)C2(CC(c3ccccc3)Oc3ccc(-c4ccccc4C#N)cc32)N=C1N` (stereo not drawn) [Compound 35, 2-(2′-amino-1′-methyl-5′-oxo-2-phenyl-1′,5′-dihydrospiro[chroman-4,4′-imidazole]-6-yl)benzonitrile], the IC50 lay in the range of 1 to 5 µM.

`CN1C(=O)C2(CC(c3ccccc3)Oc3ccc(-c4cccs4)cc32)N=C1N` (stereo not drawn) [Compound 36, 2′-amino-1′-methyl-2-phenyl-6-(thiophen-2-yl)spiro[chroman-4,4′-imidazol]-5′(1′H)-one] registered an IC50 of 1 to 5 µM.

Consider `CN(C)C(=O)c1cccc(-c2ccc3c(c2)C2(CC(c4ccccc4)O3)N=C(N)N(C)C2=O)c1` (stereo not drawn) [Compound 39, 3-(2′-amino-1′-methyl-5′-oxo-2-phenyl-1′,5′-dihydrospiro[chroman-4,4′-imidazole]-6-yl)-N,N-dimethylbenzamide], for which the IC50 lay within 1 to 5 µM.

On to `CN1C(=O)C2(CC(c3ccccc3)Oc3ccc(-c4ccc(F)c(C(=O)NCCO)c4)cc32)N=C1N` (stereo not drawn) [Compound 40, 5-(2′-amino-1′-methyl-5′-oxo-2-phenyl-1′,5′-dihydrospiro[chroman-4,4′-imidazole]-6-yl)-2-fluoro-N-(2-hydroxyethyl)benzamide], for which the IC50 lay in the range of 1 to 5 µM.

The molecule `CC(=O)Nc1cccc(-c2ccc3c(c2)C2(CC(c4ccccc4)O3)N=C(N)N(C)C2=O)c1` (stereo not drawn) [Compound 41, N-(3-(2′-amino-1′-methyl-5′-oxo-2-phenyl-1′,5′-dihydrospiro[chroman-4,4′-imidazole]-6-yl)phenyl)acetamide] yielded an IC50 of 1 to 5 µM.

`CC(=O)NCc1cccc(-c2ccc3c(c2)C2(CC(c4ccccc4)O3)N=C(N)N(C)C2=O)c1` (stereo not drawn) [Compound 43, N-(3-(2′-amino-1′-methyl-5′-oxo-2-phenyl-1′,5′-dihydrospiro[chroman-4,4′-imidazole]-6-yl)benzyl)acetamide] came in with an IC50 of 5 to 10 µM.

`CN1C(=O)C2(CC(c3ccccc3)Oc3ccc(Br)cc32)N=C1N` (stereo not drawn) [Compound 44, 2′-amino-6-bromo-1′-methyl-2-phenylspiro[chroman-4,4′-imidazol]-5′(1′H)-one] had an IC50 of 10 to 50 µM.

In turn, `CN1C(=O)C2(CC(c3ccccc3)Oc3ccc(-c4cccc(S(=O)(=O)N(C)C)c4)cc32)N=C1N` (stereo not drawn) [Compound 45, 3-(2′-amino-1′-methyl-5′-oxo-2-phenyl-1′,5′-dihydrospiro[chroman-4,4′-imidazole]-6-yl)-N,N-dimethylbenzenesulfonamide] registered an IC50 of 5 to 10 µM.

For `CN1C(=O)C2(CC(c3ccccc3)Oc3ccc(-c4cccc(C(=O)NCCC#N)c4)cc32)N=C1N` (stereo not drawn) [Compound 47, 3-(2′-amino-1′-methyl-5′-oxo-2-phenyl-1′,5′-dihydrospiro[chroman-4,4′-imidazole]-6-yl)-N-(2-cyanoethyl)benzamide], the IC50 was in the range of 5 to 10 µM.

The molecule `CNS(=O)(=O)c1cccc(-c2ccc3c(c2)C2(CC(c4ccccc4)O3)N=C(N)N(C)C2=O)c1` (stereo not drawn) [Compound 48, 3-(2′-amino-1′-methyl-5′-oxo-2-phenyl-1′,5′-dihydrospiro[chroman-4,4′-imidazole]-6-yl)-N-methylbenzenesulfonamide] came in with an IC50 of 5 to 10 µM.

Turning to `CN1C(=O)C2(CC(c3ccccc3)Oc3ccc(-c4ccc(S(C)(=O)=O)cc4)cc32)N=C1N` (stereo not drawn) [Compound 49, 2′-amino-1′-methyl-6-(4-(methylsulfonyl)phenyl)-2-phenylspir-o[chroman-4,4′-imidazol]-5′(1′H)-one], the IC50 lay within 5 to 10 µM.

`CNC(=O)c1cccc(-c2ccc3c(c2)C2(CC(c4ccccc4)O3)N=C(N)N(C)C2=O)c1` (stereo not drawn) [Compound 50, 3-(2′-amino-1′-methyl-5′-oxo-2-phenyl-1′,5′-dihydrospiro[chroman-4,4′-imidazole]-6-yl)-N-methylbenzamide] returned an IC50 of 5 to 10 µM.

Molecule `CN1C(=O)C2(CC(c3ccccc3)Oc3ccc(-c4cccc(NS(C)(=O)=O)c4)cc32)N=C1N` (stereo not drawn) [Compound 52, N-(3-(2′-amino-1′-methyl-5′-oxo-2-phenyl-1′,5′-dihydrospiro[chroman-4,4′-imidazole]-6-yl)phenyl)methanesulfonamide] showed a half-maximal inhibitory concentration (IC50) of 5 to 10 µM.

Regarding `COCc1ccc(-c2ccc3c(c2)C2(CC(c4ccccc4)O3)N=C(N)N(C)C2=O)cc1` (stereo not drawn) [Compound 54, 2′-amino-6-(4-(methoxymethyl)phenyl)-1′-methyl-2-phenylspiro[chroman-4,4′-imidazol]-5′(1′H)-one], the IC50 fell in the range of 10 to 50 µM.

Consider `CN1C(=O)C2(CC(c3ccccc3)Oc3ccc(-c4ccc(C(F)(F)F)cc4)cc32)N=C1N` (stereo not drawn) [Compound 56, 2′-amino-1′-methyl-2-phenyl-6-(4-(trifluoromethyl)phenyl)spiro[chroman-4,4′-imidazol]-5′(1′H)-one], for which the IC50 was 10 to 50 µM.

Turning to `CN1C(=O)C2(CC(c3ccccc3)Oc3ccc(-c4ccncc4)cc32)N=C1N` (stereo not drawn) [Compound 58, 2′-amino-1′-methyl-2-phenyl-6-(pyridin-4-yl)spiro[chroman-4,4′-imidazol]-5′(1′H)-one], the IC50 was in the range of 10 to 50 µM.

Turning to `CN1C(=O)C2(CC(c3ccccc3)Oc3ccc(-c4cccc(C(=O)N5CCCC5)c4)cc32)N=C1N` (stereo not drawn) [Compound 61, 2′-amino-1′-methyl-2-phenyl-6-(3-(pyrrolidine-1-carbonyl)phenyl)spiro[chroman-4,4′-imidazol]-5′(1′H)-one], the concentration for half-maximal inhibition (IC50) was in the range of 10 to 50 µM.

Turning to `CN1C(=O)C2(CC(c3ccccc3)Oc3ccc(-c4ccc(CNS(C)(=O)=O)cc4)cc32)N=C1N` (stereo not drawn) [Compound 62, N-(4-(2′-amino-1′-methyl-5′-oxo-2-phenyl-1′,5′-dihydrospiro[chroman-4,4′-imidazole]-6-yl)benzyl)methanesulfonamide], the IC50 lay within 10 to 50 µM.

Still in this assay, the particulars now being: in vitro enzyme activity, BACE fluorescence assay, pH 4.5; read-out: IC50.
As for `CN1C(=O)C2(CC(c3cccnc3)Oc3ccc(-c4cccc(C#N)c4)cc32)N=C1N` (stereo not drawn) [Compound 31], the IC50 lay within 1 to 5 µM.

`CN1C(=O)C2(CC(C)(c3ccccc3)Oc3ccc(-c4cccc(C#N)c4)cc32)N=C1N` (stereo not drawn) [Compound 32, 3-(2′-amino-1′,2-dimethyl-5′-oxo-2-phenyl-1′,5′-dihydrospiro[chroman-4,4′-imidazole]-6-yl)benzonitrile]: the IC50 lay in the range of 1 to 5 µM.

In the case of `CN1C(=O)C2(CC(c3cccc(Cl)c3)Oc3ccc(Br)cc32)N=C1N` (stereo not drawn) [Compound 34, 2′-amino-6-bromo-2-(3-chlorophenyl)-1′-methylspiro[chroman-4,4′-imidazol]-5′(1′H)-one], the IC50 fell in the range of 1 to 5 µM.

For the molecule `CN1C(=O)C2(CC(c3cccc(F)c3)Oc3ccc(Br)cc32)N=C1N` (stereo not drawn) [Compound 38, 2′-amino-6-bromo-2-(3-fluorophenyl)-1′-methylspiro[chroman-4,4′-imidazol]-5′(1′H)-one], the IC50 was in the range of 1 to 5 µM.

As for `CN1C(=O)C2(CC(c3cccc(F)c3F)Oc3ccc(Br)cc32)N=C1N` (stereo not drawn) [Compound 42], the IC50 fell in the range of 5 to 10 µM.

For `COc1cccc(C2CC3(N=C(N)N(C)C3=O)c3cc(Br)ccc3O2)c1` (stereo not drawn) [Compound 46, 2′-amino-6-bromo-2-(3-methoxyphenyl)-1′-methylspiro[chroman-4,4′-imidazol]-5′(1′H)-one], the IC50 was in the range of 5 to 10 µM.

In the case of `CN1C(=O)C2(CC(c3ccc(Cl)cc3)Oc3ccc(Br)cc32)N=C1N` (stereo not drawn) [Compound 53, 2′-amino-6-bromo-2-(4-chlorophenyl)-1′-methylspiro[chroman-4,4′-imidazol]-5′(1′H)-one], the IC50 lay within 10 to 50 µM.

For `CCCCNC(=O)c1cccc(-c2ccc3c(c2)[C@]2(C[C@H](c4ccccc4)O3)N=C(N)N(C)C2=O)c1` [Compound 55a, 3-((2R,4S)-2′-amino-1′-methyl-5′-oxo-2-phenyl-1′,5′-dihydrospiro[chroman-4,4′-imidazole]-6-yl)-N-butylbenzamide], the IC50 fell in the range of 10 to 50 µM.

On to `CCCCNC(=O)c1cccc(-c2ccc3c(c2)[C@]2(C[C@@H](c4ccccc4)O3)N=C(N)N(C)C2=O)c1` [Compound 55b, 3-((2S,4S)-2′-amino-1′-methyl-5′-oxo-2-phenyl-1′,5′-dihydrospiro[chroman-4,4′-imidazole]-6-yl)-N-butylbenzamide], for which the IC50 was in the range of 10 to 50 µM.

`CCCN1C(=O)C2(CC(c3ccccc3)Oc3ccc(Br)cc32)N=C1N` (stereo not drawn) [Compound 57, 2′-amino-6-bromo-2-phenyl-1′-propylspiro[chroman-4,4′-imidazol]-5′(1′H)-one]: the IC50 lay in the range of 10 to 50 µM.

For `CCCN1C(=O)[C@@]2(C[C@H](c3ccccc3)Oc3ccc(Br)cc32)N=C1N` [Compound 57a, (2R,4S)-2′-amino-6-bromo-2-phenyl-1′-propylspiro[chroman-4,4′-imidazol]-5′(1′H)-one], the IC50 was 10 to 50 µM.

Take `NC1=NC2(CC(c3ccccc3)Oc3ccc(Br)cc32)C(=O)N1CCC1CC1` (stereo not drawn) [Compound 59, 2′-amino-6-bromo-1′-(2-cyclopropylethyl)-2-phenylspiro[chroman-4,4′-imidazol]-5′(1′H)-one]: the IC50 lay in the range of 10 to 50 µM.

Consider `CN1C(=O)C2(CC(c3ccccc3F)Oc3ccc(Br)cc32)N=C1N` (stereo not drawn) [Compound 63, 2′-amino-6-bromo-2-(2-fluorophenyl)-1′-methylspiro-[chroman-4,4′-imidazol]-5′(1′H)-one], for which the IC50 lay in the range of 10 to 50 µM.
